# Measured values: the supplement of paper PMC5373622, “Screening for AMPA receptor auxiliary subunit specific modulators” (PLoS ONE, 2017)
# ± gives the standard deviation of the averaged measurements.
# What was measured:
# GRIA2 [1] = test: glutamate-evoked VSD slope, % of maximal glutamate response; higher = potentiation
# GRIA2 [2] = test: compound-evoked VSD slope (no glutamate), % of maximal glutamate slope; higher = agonist activity
# Description: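 VSD concentration-response of known AMPAR ligands (fluorowillardiine, CX-546, cyclothiazide) on A2R-stg and A2R-C3 HEK293 cells, with compound added before EC50 glutamate. Per-well GluSlope and compound-window slope are given as % of the maximal-glutamate slope after vehicle subtraction.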
Compound,"glutamate-evoked VSD slope (GRIA2 [1]; 1.95 µM, clone: A2R-C3) [%]","glutamate-evoked VSD slope (GRIA2 [1]; 1.95 µM, clone: A2R-stg) [%]","glutamate-evoked VSD slope (GRIA2 [1]; 3.91 µM, clone: A2R-C3) [%]","glutamate-evoked VSD slope (GRIA2 [1]; 3.91 µM, clone: A2R-stg) [%]","glutamate-evoked VSD slope (GRIA2 [1]; 7.81 µM, clone: A2R-C3) [%]","glutamate-evoked VSD slope (GRIA2 [1]; 7.81 µM, clone: A2R-stg) [%]","glutamate-evoked VSD slope (GRIA2 [1]; 15.6 µM, clone: A2R-C3) [%]","glutamate-evoked VSD slope (GRIA2 [1]; 15.6 µM, clone: A2R-stg) [%]","glutamate-evoked VSD slope (GRIA2 [1]; 31.2 µM, clone: A2R-C3) [%]","glutamate-evoked VSD slope (GRIA2 [1]; 31.2 µM, clone: A2R-stg) [%]","glutamate-evoked VSD slope (GRIA2 [1]; 62.5 µM, clone: A2R-C3) [%]","glutamate-evoked VSD slope (GRIA2 [1]; 62.5 µM, clone: A2R-stg) [%]","glutamate-evoked VSD slope (GRIA2 [1]; 0.000125 M, clone: A2R-C3) [%]","glutamate-evoked VSD slope (GRIA2 [1]; 0.000125 M, clone: A2R-stg) [%]","glutamate-evoked VSD slope (GRIA2 [1]; 0.00025 M, clone: A2R-stg) [%]","glutamate-evoked VSD slope (GRIA2 [1]; 0.0005 M, clone: A2R-C3) [%]","glutamate-evoked VSD slope (GRIA2 [1]; 0.0005 M, clone: A2R-stg) [%]","compound-evoked VSD slope (GRIA2 [2]; 1.95 µM, clone: A2R-C3) [%]","compound-evoked VSD slope (GRIA2 [2]; 1.95 µM, clone: A2R-stg) [%]","compound-evoked VSD slope (GRIA2 [2]; 3.91 µM, clone: A2R-C3) [%]","compound-evoked VSD slope (GRIA2 [2]; 3.91 µM, clone: A2R-stg) [%]","compound-evoked VSD slope (GRIA2 [2]; 7.81 µM, clone: A2R-C3) [%]","compound-evoked VSD slope (GRIA2 [2]; 7.81 µM, clone: A2R-stg) [%]","compound-evoked VSD slope (GRIA2 [2]; 15.6 µM, clone: A2R-C3) [%]","compound-evoked VSD slope (GRIA2 [2]; 15.6 µM, clone: A2R-stg) [%]","compound-evoked VSD slope (GRIA2 [2]; 31.2 µM, clone: A2R-C3) [%]","compound-evoked VSD slope (GRIA2 [2]; 31.2 µM, clone: A2R-stg) [%]","compound-evoked VSD slope (GRIA2 [2]; 62.5 µM, clone: A2R-C3) [%]","compound-evoked VSD slope (GRIA2 [2]; 62.5 µM, clone: A2R-stg) [%]","compound-evoked VSD slope (GRIA2 [2]; 0.000125 M, clone: A2R-C3) [%]","compound-evoked VSD slope (GRIA2 [2]; 0.000125 M, clone: A2R-stg) [%]","compound-evoked VSD slope (GRIA2 [2]; 0.00025 M, clone: A2R-C3) [%]","compound-evoked VSD slope (GRIA2 [2]; 0.00025 M, clone: A2R-stg) [%]","compound-evoked VSD slope (GRIA2 [2]; 0.0005 M, clone: A2R-C3) [%]","compound-evoked VSD slope (GRIA2 [2]; 0.0005 M, clone: A2R-stg) [%]","glutamate-evoked VSD slope (GRIA2 [1]; 0.001 M, clone: A2R-C3) [%]","glutamate-evoked VSD slope (GRIA2 [1]; 0.001 M, clone: A2R-stg) [%]","compound-evoked VSD slope (GRIA2 [2]; 0.001 M, clone: A2R-C3) [%]"
NS(=O)(=O)c1cc2c(cc1Cl)NC(C1CC3C=CC1C3)NS2(=O)=O (configuration not stated) [cyclothiazide],23 ± 3.3,30.6 ± 5.6,26.7 ± 2.5,37.5 ± 5.1,42.8 ± 3.3,52.6 ± 3.2,56.6 ± 5.3,60 ± 5.6,65.2 ± 3.7,62.7 ± 9.1,70.9 ± 3.4,68.8 ± 4,63.8 ± 21,68.4 ± 3.5,71.3 ± 3.3,69 ± 4.6,65.9 ± 8.1,16.2 ± 1.1,27.7 ± 0.73,18.4 ± 1.1,26.6 ± 1.6,15.7 ± 1.1,27.1 ± 1.4,18 ± 1.3,27.3 ± 0.81,18.6 ± 0.53,27.7 ± 1.1,18.6 ± 1.4,28.8 ± 0.79,19.2 ± 1.4,29 ± 0.62,20.3 ± 1.3,28.2 ± 1.1,20.7 ± 1.4,27.5 ± 1.8,–,–,–
O=C(c1ccc2c(c1)OCCO2)N1CCCCC1 [CX-546],–,–,12.5 ± 1.8,–,10.8 ± 3.4,20.7 ± 4.5,15.8 ± 6.4,24.6 ± 8,–,24.9 ± 3.2,23 ± 2,41.4 ± 4.9,25.6 ± 3.4,–,53.6 ± 3,40.3 ± 4.6,–,–,–,16.4 ± 1.7,26.8 ± 0.99,16.9 ± 0.81,27.4 ± 1,16.1 ± 4.3,26.7 ± 1.3,16.2 ± 3.6,26.7 ± 1.4,18.9 ± 2.4,28 ± 0.66,18.9 ± 0.99,29.5 ± 0.74,–,–,23.4 ± 0.91,–,47.6 ± 10,54.1 ± 3.9,29.1 ± 1.2
